Data: the NIST ThermoML archive (doi:10.1021/je400709f)

Assay: excess molar enthalpy (molar enthalpy of mixing); xn = mol fraction of the nth substance listed
Conditions: 298.15 K, 101 kPa, Liquid, Calvet calorimetry

CCCCCCCC[n+]1ccn(C)c1.F[B-](F)(F)F [1-methyl-3-octylimidazolium tetrafluoroborate] + CCCCO
Conditions	excess molar enthalpy [kcal/mol]
x1 = 0.191	0.349
x1 = 0.195	0.355
x1 = 0.2	0.362
x1 = 0.204	0.369
x1 = 0.209	0.376
x1 = 0.214	0.384
x1 = 0.219	0.391
x1 = 0.223	0.397
x1 = 0.228	0.402
x1 = 0.233	0.407
x1 = 0.238	0.413
x1 = 0.243	0.419
x1 = 0.248	0.425
x1 = 0.254	0.431
x1 = 0.259	0.438
x1 = 0.266	0.446
x1 = 0.272	0.453
x1 = 0.279	0.461
x1 = 0.286	0.469
x1 = 0.293	0.48
x1 = 0.301	0.492
x1 = 0.309	0.504
x1 = 0.318	0.516
x1 = 0.328	0.528
x1 = 0.337	0.541
x1 = 0.348	0.554
x1 = 0.359	0.566
x1 = 0.371	0.577
x1 = 0.383	0.586
x1 = 0.392	0.593
x1 = 0.4	0.599
x1 = 0.41	0.605
x1 = 0.419	0.608
x1 = 0.429	0.611
x1 = 0.44	0.611
x1 = 0.451	0.611
x1 = 0.462	0.608
x1 = 0.474	0.605
x1 = 0.487	0.6
x1 = 0.501	0.596
x1 = 0.515	0.589
x1 = 0.53	0.582
x1 = 0.546	0.571
x1 = 0.563	0.56
x1 = 0.582	0.545
x1 = 0.601	0.531
x1 = 0.622	0.511
x1 = 0.644	0.49
x1 = 0.653	0.482
x1 = 0.663	0.474
x1 = 0.673	0.464
x1 = 0.683	0.455
x1 = 0.693	0.443
x1 = 0.704	0.429
x1 = 0.715	0.417
x1 = 0.727	0.405
x1 = 0.739	0.392
x1 = 0.751	0.378
x1 = 0.764	0.363
x1 = 0.777	0.348
x1 = 0.79	0.331
x1 = 0.804	0.313
x1 = 0.819	0.294
x1 = 0.834	0.275
x1 = 0.85	0.254
x1 = 0.866	0.231
x1 = 0.883	0.208
x1 = 0.9	0.18
x1 = 0.919	0.149
x1 = 0.938	0.114
x1 = 0.958	0.0796
x1 = 0.978	0.0411

CCCCCCCC[n+]1ccn(C)c1.F[B-](F)(F)F [1-methyl-3-octylimidazolium tetrafluoroborate] + CCCO
Conditions	excess molar enthalpy [kcal/mol]
x1 = 0.136	0.302
x1 = 0.138	0.306
x1 = 0.141	0.311
x1 = 0.144	0.317
x1 = 0.146	0.322
x1 = 0.149	0.327
x1 = 0.152	0.333
x1 = 0.156	0.339
x1 = 0.159	0.345
x1 = 0.163	0.352
x1 = 0.166	0.358
x1 = 0.169	0.363
x1 = 0.173	0.368
x1 = 0.176	0.374
x1 = 0.179	0.38
x1 = 0.183	0.385
x1 = 0.187	0.391
x1 = 0.19	0.397
x1 = 0.194	0.404
x1 = 0.199	0.411
x1 = 0.203	0.419
x1 = 0.208	0.426
x1 = 0.212	0.435
x1 = 0.217	0.443
x1 = 0.223	0.451
x1 = 0.228	0.46
x1 = 0.234	0.469
x1 = 0.24	0.479
x1 = 0.247	0.489
x1 = 0.253	0.5
x1 = 0.261	0.511
x1 = 0.268	0.523
x1 = 0.276	0.534
x1 = 0.285	0.546
x1 = 0.29	0.554
x1 = 0.296	0.562
x1 = 0.302	0.57
x1 = 0.309	0.577
x1 = 0.315	0.585
x1 = 0.322	0.592
x1 = 0.329	0.6
x1 = 0.337	0.607
x1 = 0.345	0.614
x1 = 0.353	0.62
x1 = 0.362	0.624
x1 = 0.371	0.629
x1 = 0.381	0.632
x1 = 0.391	0.634
x1 = 0.401	0.635
x1 = 0.413	0.635
x1 = 0.425	0.636
x1 = 0.437	0.635
x1 = 0.451	0.634
x1 = 0.465	0.632
x1 = 0.48	0.628
x1 = 0.496	0.623
x1 = 0.513	0.617
x1 = 0.532	0.61
x1 = 0.552	0.598
x1 = 0.56	0.592
x1 = 0.569	0.586
x1 = 0.578	0.579
x1 = 0.587	0.571
x1 = 0.596	0.563
x1 = 0.606	0.555
x1 = 0.616	0.545
x1 = 0.627	0.535
x1 = 0.638	0.525
x1 = 0.649	0.513
x1 = 0.66	0.501
x1 = 0.672	0.488
x1 = 0.685	0.474
x1 = 0.698	0.458
x1 = 0.711	0.443
x1 = 0.725	0.425
x1 = 0.74	0.407
x1 = 0.755	0.387
x1 = 0.771	0.366
x1 = 0.787	0.343
x1 = 0.804	0.319
x1 = 0.822	0.293
x1 = 0.841	0.265
x1 = 0.86	0.235
x1 = 0.881	0.202
x1 = 0.902	0.168
x1 = 0.925	0.131
x1 = 0.949	0.0915
x1 = 0.974	0.0476

CCCCCCCC[n+]1ccn(C)c1.F[B-](F)(F)F [1-methyl-3-octylimidazolium tetrafluoroborate] + CCO
Conditions	excess molar enthalpy [kcal/mol]
x1 = 0.135	0.382
x1 = 0.137	0.386
x1 = 0.14	0.391
x1 = 0.143	0.396
x1 = 0.146	0.401
x1 = 0.149	0.406
x1 = 0.152	0.411
x1 = 0.155	0.415
x1 = 0.159	0.421
x1 = 0.162	0.426
x1 = 0.166	0.431
x1 = 0.17	0.437
x1 = 0.174	0.442
x1 = 0.178	0.448
x1 = 0.183	0.454
x1 = 0.188	0.46
x1 = 0.193	0.466
x1 = 0.198	0.472
x1 = 0.204	0.479
x1 = 0.209	0.486
x1 = 0.216	0.494
x1 = 0.222	0.502
x1 = 0.23	0.51
x1 = 0.237	0.519
x1 = 0.242	0.527
x1 = 0.247	0.534
x1 = 0.253	0.542
x1 = 0.259	0.55
x1 = 0.264	0.557
x1 = 0.271	0.565
x1 = 0.277	0.572
x1 = 0.284	0.579
x1 = 0.291	0.586
x1 = 0.299	0.592
x1 = 0.307	0.598
x1 = 0.315	0.603
x1 = 0.324	0.608
x1 = 0.334	0.611
x1 = 0.344	0.614
x1 = 0.354	0.617
x1 = 0.365	0.619
x1 = 0.377	0.621
x1 = 0.39	0.622
x1 = 0.404	0.622
x1 = 0.419	0.621
x1 = 0.435	0.619
x1 = 0.452	0.614
x1 = 0.47	0.608
x1 = 0.49	0.601
x1 = 0.499	0.597
x1 = 0.507	0.593
x1 = 0.517	0.588
x1 = 0.526	0.583
x1 = 0.536	0.577
x1 = 0.546	0.57
x1 = 0.556	0.563
x1 = 0.567	0.555
x1 = 0.579	0.546
x1 = 0.591	0.537
x1 = 0.603	0.526
x1 = 0.616	0.515
x1 = 0.629	0.503
x1 = 0.643	0.489
x1 = 0.658	0.475
x1 = 0.673	0.458
x1 = 0.689	0.441
x1 = 0.706	0.422
x1 = 0.724	0.401
x1 = 0.743	0.379
x1 = 0.762	0.354
x1 = 0.783	0.327
x1 = 0.805	0.297
x1 = 0.828	0.266
x1 = 0.852	0.23
x1 = 0.878	0.193
x1 = 0.906	0.15
x1 = 0.935	0.106
x1 = 0.966	0.0557
